In publication PMC6269660, “Anti-Inflammatory Cycloartane-Type Saponins of Astragalus membranaceus” (Molecules, 2013):

How the values were obtained:
Format in all cases: cell-based
[1] = tested on: LPS-induced NO production in RAW 264.7 macrophage cells; assay: Inhibition of LPS-induced NO production (nitrite, Griess reagent); conditions: for inhibition of NO production (in words): LPS-induced RAW264.7 macrophages
Experimental: Previous studies have already reported on the anti-inflammatory effects of components obtained from A. membranaceus. Thus, we also investigated the inhibitory effects of compounds 1–5 on NO production by using the Griess reaction to measure nitrite, a soluble oxidation product of NO, in the culture medium of LPS-induced RAW 264.7 macrophages.
(§1) Assays for NO production and cell viability were carried out as previously described. Briefly, RAW 264.7 macrophages were harvested and seeded in 24-well plates (3 × 10^5 cells/well) for the measurement of NO production. The plates were pretreated with various concentrations of samples for 1 h and incubated with LPS (1 μg/mL) for 7 h. The amount of NO was determined by the nitrite concentration in the cultured RAW264.7 macrophage supernatants using the Griess reagent. The cell viability was evaluated by MTT reduction.

[2] = Cell viability by MTT reduction; conditions: mouse, at a concentration of 100 μM, RAW 264.7 cells, MTT reduction, mean ± SD of three independent experiments
Experimental: as §1

[3] = tested on: RAW 264.7 macrophages; assay: Cell viability by MTT reduction; conditions: RAW 264.7 cells treated with compounds
Experimental: as §1

O=C(O)/C=C/c1ccc(O)c(O)c1 [Caffeic acid, reference compound]
IC50 ([1]; Mus musculus, RAW264.7, LPS-activated RAW 264.7 cells, pretreated 1 h with compounds, then LPS (1 μg/mL) for 7 h, mean ± SD of three independent experiments): 830 ± 1150 nM
viability at 8 h, 100 µM [2]: 82.2 ± 1.64%

CC(=O)OC1C(OC2CCC34CC35CCC3(C)C(C(C)CCC(O)C(C)(C)O)CCC3(C)C5CC(OC3OC(CO)C(O)C(O)C3O)C4C2(C)C)OCC(O)C1O [Compound 1, 3-O-β-(2'-O-acetyl)-D-xylopyranosyl-6-O-β-D-glucopyranosyl-(24S)-3β,6α,24α,25-tetrahydroxy-9,19-cyclolanostane]
inhibition of NO production (in words) [1]: significant inhibition of NO production
cell toxicity / influence on cell viability (in words) [3]: without cytotoxicity
viability at 8 h, 100 µM ([2]; RAW 264.7 macrophages): 93.2 ± 6.96%

CC(=O)OC1C(O)COC(OC2CCC34CC35CCC3(C)C(C(C)CCC(O)C(C)(C)O)C(O)CC3(C)C5CC(OC3OC(CO)C(O)C(O)C3O)C4C2(C)C)C1OC(C)=O (centres unmarked) [Compound 2, agroastragaloside I]
cell toxicity / influence on cell viability (in words) [3]: Some cell toxicity was observed
viability at 8 h, 100 µM ([2]; RAW 264.7 macrophages): 54.5 ± 1.21%

CC(=O)OC1C(OC2CCC34CC35CCC3(C)C(C(C)CCC(O)C(C)(C)O)C(O)CC3(C)C5CC(OC3OC(CO)C(O)C(O)C3O)C4C2(C)C)OCC(O)C1O (centres unmarked) [Compound 3, agroastragaloside II]
cell toxicity / influence on cell viability (in words) [3]: Some cell toxicity was observed
viability at 8 h, 100 µM ([2]; RAW 264.7 macrophages): 47.6 ± 3.4%

CC(=O)O[C@@H]1[C@@H](O)[C@H](O[C@H]2CC[C@]34C[C@]35CC[C@]3(C)[C@@H]([C@@]6(C)CC[C@@H](C(C)(C)O)O6)[C@@H](O)C[C@@]3(C)[C@@H]5C[C@H](O[C@@H]3O[C@H](CO)[C@@H](O)[C@H](O)[C@H]3O)[C@H]4C2(C)C)OC[C@H]1O [Compound 4, isoastragaloside II]
cell toxicity / influence on cell viability (in words) [3]: Some cell toxicity was observed
viability at 8 h, 100 µM ([2]; RAW 264.7 macrophages): 69 ± 1.82%

CC(C)(O)[C@@H]1CC[C@](C)([C@H]2[C@@H](O)C[C@@]3(C)[C@@H]4C[C@H](O[C@@H]5O[C@H](CO)[C@@H](O)[C@H](O)[C@H]5O)[C@H]5C(C)(C)[C@@H](O[C@@H]6OC[C@@H](O)[C@H](O)[C@H]6O)CC[C@@]56C[C@@]46CC[C@]23C)O1 [Compound 5, astragaloside IV]
inhibition of NO production (in words) [1]: significant inhibition of NO production
cell toxicity / influence on cell viability (in words) [3]: without cytotoxicity
viability at 8 h, 100 µM [2]: 94.4 ± 4.33%
